Measurements as given in publication PMC6151437, “Antibacterial Synthetic Peptides Derived from Bovine Lactoferricin Exhibit Cytotoxic Effect against MDA-MB-468 and MDA-MB-231 Breast Cancer Cell Lines” (Molecules : A Journal of Synthetic Chemistry and Natural …, 2017).
Like-named read-outs stand apart in the source and are kept apart here. Bridge positions count the residues as written; N and C are the ends. Square brackets hold non-standard residues; d marks the D form. Ends that are not written are not given here. Peptide text beside a SMILES is read from it. I, II: the chains in the order shown. Ahx = NCCCCCC(=O)O

Assays:
[1] = assay type: cell-based, human; details: human
Experimental: (§1) Cytotoxicity assays were performed as previously described. Briefly, breast cancer cell lines (100 µL; 2.5 × 10^3 cells/well) were seeded in 96-well flat bottom tissue culture treated plates and were incubated at 37 °C in a 10% CO2 humidified atmosphere for 24 h, allowing for cell adhesion. Then the media was removed, then 100 µL of FBS (5%) and 100 µL of peptide were added. The peptide final concentration was ranging from 200 to 6.25 µg/mL and the final FBS concentration was 2.5%. Plates were incubated 2 h at 37 °C in a 10% CO2 humidified atmosphere (physiologic pH). Negative controls included medium and water. All controls were prepared in triplicate. Cell viability was determined using the MTT assay after 2 h. For this, 10 µL of MTT solution (5 mg/mL) was added to each well, and the plates were incubated for 2 h at 37 °C. Formazan crystals were clarified by centrifugation, the supernatant was discarded, and the crystals were dissolved in DMSO (100 µL). Absorbance (570 nm) was registered on a Bio-Rad 680 microplate reader. (n = 3).

[2] = assay type: cell-based, human; details: human; remark: listed apart in the source
Experimental: as §1

E. coli ATCC 11775 = assay type: cell-based
Experimental: (§2) The minimal inhibitory concentration (MIC) was determined using a microdilution assay. In brief, bacterial strains were incubated for 18 to 24 h at 37 °C in an Muller Hinton broth (MHB) until an optical density of 0.15 to 0.30 (620 nm) was obtained. 90 µL of MHB was mixed with 90 µL of peptide (440 µg/mL), and using a 96-well microtiter plate peptide, serial dilution (200, 100, 50, 25, 12.5, and 6.2 µg/mL) was performed. 10 µL of inoculum (2 × 10^6 CFU/mL) was added to each well. Final volume in each well was 100 µL. Then they were incubated for 24 h at 37 °C, and the absorbance at 620 nm was measured using an Asys Expert Plus ELISA reader. For determining the minimum bactericidal concentration (MBC), a small sample was taken from each well using an inoculation loop, which was then spread on MHA plates and incubated overnight at 37 °C. […] Each of these tests was performed twice (n = 2).

E. coli ATCC 25922 = assay type: cell-based
Experimental: as §2

[3] = system: human gastric cancer cell line AGS; details: cited from earlier work
[4] = E. coli ATCC 11775, microdilution in MHB, 24 h at 37 °C, absorbance 620 nm, n = 2
[5] = E. coli ATCC 11775, plated on MHA overnight at 37 °C, no bacterial growth, n = 2
[6] = E. coli ATCC 25922, microdilution in MHB, 24 h at 37 °C, absorbance 620 nm, n = 2
[7] = E. coli ATCC 25922, plated on MHA overnight at 37 °C, no bacterial growth, n = 2

Row | IC50 at 2 h [1] [µM] | IC50 at 2 h [2] [µM] | Antibacterial Effect MIC (E. coli ATCC 11775; ATCC 11775, 24 h) | Antibacterial Effect MIC (E. coli ATCC 25922; ATCC 25922, 24 h) | Antibacterial Effect MIC (E. coli ATCC 25922; [6]) [µg/mL] | Antibacterial Effect MIC (E. coli ATCC 11775; E. coli ATCC 11775, value in parentheses, microdilution in MHB, 24 h at 37 °C, n = 2) [µM] | Molecule | Antibacterial Effect MBC (E. coli ATCC 11775; ATCC 11775) | Antibacterial Effect MIC (E. coli ATCC 11775; [4]) [µg/mL] | Antibacterial Effect MBC (E. coli ATCC 11775; [5]) [µg/mL] | Antibacterial Effect MBC (E. coli ATCC 25922; ATCC 25922) | Antibacterial Effect MBC (E. coli ATCC 25922; [7]) [µg/mL] | Antibacterial Effect MBC (E. coli ATCC 11775; E. coli ATCC 11775, value in parentheses, plated on MHA overnight at 37 °C, n = 2) [µM] | Antibacterial Effect MBC (E. coli ATCC 25922; E. coli ATCC 25922, value in parentheses, plated on MHA overnight at 37 °C, n = 2) [µM] | IC50 [3] [µM]
1 | > 88 | > 88 | > 88 µM | 88 µM | 200 |  | CSCC[C@@H]1NC(=O)[C@H](CCCNC(=N)N)NC(=O)[C@H](Cc2c[nH]c3ccccc23)NC(=O)[C@H](CCC(N)=O)NC(=O)[C@H](Cc2c[nH]c3ccccc23)NC(=O)[C@H](CCCNC(=N)N)NC(=O)[C@H](CCCNC(=N)N)NC(=O)[C@H](C)NC(=O)[C@H](CCCCN)NC(=O)[C@H](Cc2ccccc2)NC(=O)[C@@H](N)CSSC[C@@H](C(N)=O)NC(=O)CCCCCNC(=O)[C@H](C)NC(=O)CNC(=O)[C@H](CC(C)C)NC(=O)[C@H](CCCCN)NC(=O)[C@H](CCCCN)NC1=O [[Ala^19]-LfcinB (17–31)cyc] (H-CFKARRWQWRMKKLGA[Ahx]C-NH2; disulfide 1-18) | > 88 µM | > 200 | > 200 | 88 µM | 200 |  |  | 
2 |  |  |  | 77 µM | 100 | 153 | N=C(N)NCCC[C@@H]1NC(=O)[C@H](Cc2c[nH]c3ccccc23)NC(=O)[C@H](CCC(N)=O)NC(=O)[C@H](Cc2c[nH]c3ccccc23)NC(=O)[C@H](CCCNC(=N)N)NC(=O)[C@H](CCCNC(=N)N)NC(=O)[C@@H](N)CSSC[C@@H](C(N)=O)NC(=O)CCCCCNC1=O [LfcinB (20–25)cyc] (H-CRRWQWR[Ahx]C-NH2; disulfide 1-9) |  |  |  |  |  | 153 | > 153 | 
3 |  |  | > 48 µM | 24 µM | 100 |  | CSCC[C@H](NC(=O)[C@H](CCCNC(=N)N)NC(=O)[C@H](Cc1c[nH]c2ccccc12)NC(=O)[C@H](CCC(N)=O)NC(=O)[C@H](Cc1c[nH]c2ccccc12)NC(=O)[C@H](CCCNC(=N)N)NC(=O)[C@H](CCCNC(=N)N)NC(=O)[C@H](C)NC(=O)[C@H](CCCCN)NC(=O)[C@@H](N)Cc1ccccc1)C(=O)N[C@@H](CCCCN)C(=O)N[C@@H](CCCCN)C(=O)N[C@@H](CC(C)C)C(=O)NCC(=O)N[C@@H](C)C(=O)NCCCC[C@H](NC(=O)[C@H](C)NC(=O)CNC(=O)[C@H](CC(C)C)NC(=O)[C@H](CCCCN)NC(=O)[C@H](CCCCN)NC(=O)[C@H](CCSC)NC(=O)[C@H](CCCNC(=N)N)NC(=O)[C@H](Cc1c[nH]c2ccccc12)NC(=O)[C@H](CCC(N)=O)NC(=O)[C@H](Cc1c[nH]c2ccccc12)NC(=O)[C@H](CCCNC(=N)N)NC(=O)[C@H](CCCNC(=N)N)NC(=O)[C@H](C)NC(=O)[C@H](CCCCN)NC(=O)[C@@H](N)Cc1ccccc1)C(=O)NCCCCCC(N)=O [[Ala^19]-LfcinB (17–31)2] (I: H-FKARRWQWRMKKLGAK[Ahx]-NH2 / II: H-FKARRWQWRMKKLGA; amide I:16-II:C) | > 48 µM | > 200 | > 200 | 24 µM | 100 |  |  | 
4 |  |  | 200 µg/mL | 200 µg/mL |  |  | CSCC[C@@H]1NC(=O)[C@H](CCCNC(=N)N)NC(=O)[C@H](Cc2c[nH]c3ccccc23)NC(=O)[C@H](CCC(N)=O)NC(=O)[C@H](Cc2c[nH]c3ccccc23)NC(=O)[C@H](CCCNC(=N)N)NC(=O)[C@H](CCCNC(=N)N)NC(=O)[C@@H](N)CSSC[C@@H](C(N)=O)NC(=O)CCCCCNC(=O)CNC(=O)[C@H](CC(C)C)NC(=O)[C@H](CCCCN)NC(=O)[C@H](CCCCN)NC1=O [LfcinB (20–30)cyc] (H-CRRWQWRMKKLG[Ahx]C-NH2; disulfide 1-14) | 200 µg/mL |  |  | 200 µg/mL |  |  |  | 
5 | > 130 | > 130 | 130 µM | 130 µM |  |  | RRWQWRMKKLG-NH2 [LfcinB (20–30)] | 130 µM |  |  | 130 µM |  |  |  | > 500
6 | > 102 | > 102 | > 102 µM | 102 µM |  |  | CSCC[C@H](NC(=O)[C@H](CCCNC(=N)N)NC(=O)[C@H](Cc1c[nH]c2ccccc12)NC(=O)[C@H](CCC(N)=O)NC(=O)[C@H](Cc1c[nH]c2ccccc12)NC(=O)[C@H](CCCNC(=N)N)NC(=O)[C@H](CCCNC(=N)N)NC(=O)[C@H](C)NC(=O)[C@H](CCCCN)NC(=O)[C@@H](N)Cc1ccccc1)C(=O)N[C@@H](CCCCN)C(=O)N[C@@H](CCCCN)C(=O)N[C@@H](CC(C)C)C(=O)NCC(=O)N[C@@H](C)C(=O)O [[Ala^19]-LfcinB (17–31)] | 102 µM |  |  | 102 µM |  |  |  | 

Row | Molecule | IC50 at 2 h [1] [µM] | IC50 at 2 h [2] [µM] | Antibacterial Effect MIC (E. coli ATCC 11775; ATCC 11775, 24 h) | Antibacterial Effect MIC (E. coli ATCC 25922; ATCC 25922, 24 h) | Antibacterial Effect MIC (E. coli ATCC 25922; [6]) [µg/mL] | Antibacterial Effect MIC (E. coli ATCC 11775; E. coli ATCC 11775, value in parentheses, microdilution in MHB, 24 h at 37 °C, n = 2) [µM] | Antibacterial Effect MBC (E. coli ATCC 11775; ATCC 11775) | Antibacterial Effect MIC (E. coli ATCC 11775; [4]) [µg/mL] | Antibacterial Effect MBC (E. coli ATCC 11775; [5]) [µg/mL] | Antibacterial Effect MBC (E. coli ATCC 25922; ATCC 25922) | Antibacterial Effect MBC (E. coli ATCC 25922; [7]) [µg/mL] | Antibacterial Effect MBC (E. coli ATCC 11775; E. coli ATCC 11775, value in parentheses, plated on MHA overnight at 37 °C, n = 2) [µM] | Antibacterial Effect MBC (E. coli ATCC 25922; E. coli ATCC 25922, value in parentheses, plated on MHA overnight at 37 °C, n = 2) [µM] | IC50 [3] [µM]
7 | I: H-RRWQWRMKKLGK[Ahx]C-NH2 / II: H-RRWQWRMKKLGK[Ahx]C-NH2 / III: H-RRWQWRMKKLG / IV: H-RRWQWRMKKLG (amide I:12-III:C, II:12-IV:C; disulfide I:14-II:14) [LfcinB (20–30)4] |  |  | 15 µM | 15 µM | 200 |  | 15 µM | 200 | 200 | 15 µM | 200 |  |  | 
8 | CSCC[C@H](NC(=O)[C@H](CCCNC(=N)N)NC(=O)[C@H](Cc1c[nH]c2ccccc12)NC(=O)[C@H](CCC(N)=O)NC(=O)[C@H](Cc1c[nH]c2ccccc12)NC(=O)[C@H](CCCNC(=N)N)NC(=O)[C@@H](N)CCCNC(=N)N)C(=O)N[C@@H](CCCCN)C(=O)N[C@@H](CCCCN)C(=O)N[C@@H](CC(C)C)C(=O)NCC(=O)NCCCC[C@H](NC(=O)CNC(=O)[C@H](CC(C)C)NC(=O)[C@H](CCCCN)NC(=O)[C@H](CCCCN)NC(=O)[C@H](CCSC)NC(=O)[C@H](CCCNC(=N)N)NC(=O)[C@H](Cc1c[nH]c2ccccc12)NC(=O)[C@H](CCC(N)=O)NC(=O)[C@H](Cc1c[nH]c2ccccc12)NC(=O)[C@H](CCCNC(=N)N)NC(=O)[C@@H](N)CCCNC(=N)N)C(=O)NCCCCCC(N)=O [LfcinB (20–30)2] (I: H-RRWQWRMKKLGK[Ahx]-NH2 / II: H-RRWQWRMKKLG; amide I:12-II:C) |  |  | 60 µM | 30 µM | 100 |  | 60 µM | 200 | 200 | 60 µM | 200 |  |  | 
